Test results reported in article PMC12040169 (PLOS Biology, 2025).

Assay: in vitro
Settings: human, hela cells, % viability

Work on `C[C@H]1CN2CCCC2CN1Cc1cccc(F)c1F` (stereo partly shown) [CBK285454] yielded a viability at 28.5 h, 10 µM of 111%.

`O[C@@]1(c2ccccn2)CC[C@H]2CN(Cc3ccc(F)c(F)c3)C[C@H]21` [CBK285456] showed a viability at 28.5 h, 10 µM of 107%.

For `CC(=O)NC(c1ccccn1)C1CCN(Cc2cccc(F)c2)CC1` (stereo not shown) [CBK285461], the viability at 28.5 h, 10 µM was 104%.

`Cc1cc(C[C@@H]2COC[C@H]2NCc2ccccc2C(F)(F)F)on1` [CBK285464] showed a viability at 28.5 h, 10 µM of 100%.

For `C[C@H]1CN2C[C@H](O)CC2CN1Cc1cccn1-c1ccc(F)cc1` (stereo partly shown) [CBK285465], the viability at 28.5 h, 10 µM was 97.4%.

`CCCn1cc(CN2CC3C[C@@H](O)CN3C[C@@H]2C)c2ccccc21` (stereo partly shown) [CBK285466] showed a viability at 28.5 h, 10 µM of 104%.

For `Cc1ccc(C(C)CCN2CC3CCCN3C[C@H]2C)o1` (stereo partly shown) [CBK285467], the viability at 28.5 h, 10 µM was 101%.

Compound `CCn1cc([C@H]2CN(C)C[C@@H]2N(C)C)c2ccccc21` [CBK285468] has a viability at 28.5 h, 10 µM of 108%.

Work on `COC(=O)[C@H]1CN(C(=O)C2CC(=O)N(C)C2)C[C@@H]1c1ccccc1F` (stereo partly shown) [CBK285470] yielded a viability at 28.5 h, 10 µM of 94.7%.

Work on `O=C(NC1CC1)[C@@H]1C=CCN1S(=O)(=O)c1ccccc1Cl` [CBK285479] yielded a viability at 28.5 h, 10 µM of 103%.

`CCCc1ccc(C(=O)N2CCC(C(=O)c3cccnc3)CC2)o1` [CBK285482] showed a viability at 28.5 h, 10 µM of 101%.

With `Cc1ncsc1C(=O)N1CCN(Cc2ccco2)C[C@@H]1C(C)C` [CBK285486] the viability at 28.5 h, 10 µM was 101%.

`COc1cccc(CN2CCN(C(=O)N3CCCC3)[C@@H](C)C2)c1` [CBK285491] showed a viability at 28.5 h, 10 µM of 107%.

For `O=C(C1CCCC1)N1C[C@@H]2CCCCN(CC3CC3)[C@@H]2C1` [CBK285493], the viability at 28.5 h, 10 µM was 104%.

With `COC(=O)CN1CCCC[C@H]2CN(C(=O)C3CCC3)C[C@H]21` [CBK285496] the viability at 28.5 h, 10 µM was 103%.

For `O=C(Cc1ccccc1)N1C[C@@H]2CCCCN(CC3CC3)[C@@H]2C1` [CBK285497], the viability at 28.5 h, 10 µM was 111%.

`Cc1cnccc1-c1c[nH]nc1C1CCCN1C(=O)c1ccccc1` (stereo not shown) [CBK285499] gave a viability at 28.5 h, 10 µM of 104%.

`C=CCN1CCCC[C@H]2CN(S(=O)(=O)c3cccc(F)c3)C[C@H]21` [CBK285500] gave a viability at 28.5 h, 10 µM of 103%.

`O=S(=O)(c1ccccc1)N1C[C@@H]2CCCCN(CC3CC3)[C@@H]2C1` [CBK285501] showed a viability at 28.5 h, 10 µM of 109%.

With `COc1ccc([C@H]2CN(C(C)=O)[C@@H]3CCN(CC4CC4)C[C@H]23)cc1` [CBK285502] the viability at 28.5 h, 10 µM was 98.1%.

With `O=C(c1cccs1)N1C[C@@H]2CCCCN(C3CCOCC3)[C@@H]2C1` [CBK285503] the viability at 28.5 h, 10 µM was 107%.

With `O=C(CN1CCCC[C@H]2CN(C(=O)c3cccs3)C[C@H]21)NC1CC1` [CBK285504] the viability at 28.5 h, 10 µM was 90.5%.

For `Cc1cc(C)n(CCC(=O)N2C[C@@H]3CCCCN(CC4CC4)[C@@H]3C2)n1` [CBK285505], the viability at 28.5 h, 10 µM was 102%.

`CC(=O)N1C[C@@H]2CCCCN(CC(=O)NC3CC3)[C@@H]2C1` [CBK285508] gave a viability at 28.5 h, 10 µM of 101%.

For `CC(C)N1CCCC[C@H]2CN(C(=O)C3OCCc4ccccc43)C[C@H]21` (stereo partly shown) [CBK285511], the viability at 28.5 h, 10 µM was 104%.

`CS(=O)(=O)N1C[C@@H]2CCCCN(Cc3cccc(F)c3)[C@@H]2C1` [CBK285514] showed a viability at 28.5 h, 10 µM of 103%.

Work on `CC(=O)NCC(=O)N1C[C@@H]2CCCCN(Cc3cccc(F)c3)[C@@H]2C1` [CBK285515] yielded a viability at 28.5 h, 10 µM of 90.1%.

`Cc1ccc(-c2nnc(C3CCCN(C(=O)C4CC4)C3)o2)s1` (stereo not shown) [CBK285516] gave a viability at 28.5 h, 10 µM of 83.9%.

For `COC(=O)[C@H]1CCc2ccccc2N1C(=O)C1CC1` [CBK285518], the viability at 28.5 h, 10 µM was 78.9%.

With `CN(C)C(=O)C1(Cc2ccccc2-c2cccnc2)CCN(Cc2ccccc2)CC1` [CBK285522] the viability at 28.5 h, 10 µM was 85.7%.

`CN1CCCCC[C@@H]2[C@@H]1[C@H](c1ccccc1)CN2C(=O)CN1CCCCCC1=O` [CBK285524] showed a viability at 28.5 h, 10 µM of 87.5%.

`CC(C)NC(=O)[C@H]1CN(C(=O)c2cc[nH]n2)C[C@@H]1c1ccnc(N2CCCC2)n1` [CBK285526] gave a viability at 28.5 h, 10 µM of 89.3%.

With `O=C1NCCCC12CCN(Cc1cnc(N3CCOCC3)nc1)CC2` [CBK285528] the viability at 28.5 h, 10 µM was 111%.

In the case of `Cc1cccc([C@H]2CN(C(=O)C3CCCC3)[C@@H]3CCN(C4CCCC4)C[C@H]23)c1` [CBK285529], the viability at 28.5 h, 10 µM is reported as 118%.

For `Cc1cccc(CN2CCCC[C@H]3CN(C(=O)c4cccs4)C[C@H]32)c1` [CBK285530], the viability at 28.5 h, 10 µM was 85.8%.

With `COc1ccc(OC)c(C(O)CN2CCc3sccc3C2c2cccs2)c1` (stereo not shown) [CBK285532] the viability at 28.5 h, 10 µM was 109%.

For `O=C(NCc1cccs1)C1(Cc2ccc(-c3ccc(F)c(F)c3)cc2)CCOCC1` [CBK285533], the viability at 28.5 h, 10 µM was 99.5%.

Work on `O=C(NCC1CCCO1)C1(Cc2ccc(-c3ccc(F)c(F)c3)cc2)CCOCC1` (stereo not shown) [CBK285534] yielded a viability at 28.5 h, 10 µM of 97.2%.

Work on `CC(C)NC(=O)c1sc2ccccc2c1C1CN(Cc2c[nH]nc2C(C)(C)C)CCO1` (stereo not shown) [CBK285535] yielded a viability at 28.5 h, 10 µM of 93.5%.

With `COc1ccc(F)cc1-c1ccc(CC2(C(=O)NC3CCCCC3)CCOCC2)cc1` [CBK285538] the viability at 28.5 h, 10 µM was 86.6%.
